Experimental data taken from patent publication US20050043515A1, “Tobacco-specific nitrosamine detection assays and reagents” (priority 2003, published 2005).
Read-outs that look alike come from different tables or passages of the source.

Experiments:
[1] = tested on: monoclonal antibody 245J15; test: Competitive ELISA for total TSNAs using monoclonal antibody 245J15; type: binding, mice
Experimental: (§1) Microtiter plates (Nunc, Maxisorp) were coated by adding 100 μl per well of goat anti mouse IgG Fc specific (Jackson Immunoresearch, West Grove, Pa.) at 2.5 micrograms per milliliter (μg/ml) in phosphate buffered saline (Sigma Chemical Co.) and allowing the solution to sit overnight. The next day, contents were discarded and unreacted sites on the plastic wells were blocked with 300 μl per well of PBT (1% Bovine Serum Albumen (Sigma Chemical Co.), 0.05% Tween 20 (Sigma Chemical Co.) in PBS) for one hour. Contents were again discarded and 100 μl was added per well of a 1/10,000 dilution of hybridoma culture supernatant of monoclonal antibody 245B5. Wells were then incubated one hour at room temperature. Contents of the wells were again discarded and wells washed three times with PBS with 0.05% Tween (PT). Aliquots containing 50 μl of test compounds diluted in PBT were added to the wells in duplicate, followed in less than five minutes by 50 μl of NNK conjugated to horseradish peroxidase (5 μg of horseradish peroxidase/ml). Wells were incubated for one hour at room temperature, after which they were washed six times with PT and excess liquid removed by tapping. A 100 μl aliquot of a peroxide/3,3′,5,5′-tetramethylbenzidine substrate/chromagen (Catalog # TMBUS, Moss Corporation, Pasadena, Md.) was added. Color was read at 650 nm after fifteen minutes in a microplate reader (SpectraMax Plus, Molecular Devices, Sunnyvale, Calif.). The presence of a TSNA reactive with monoclonal antibody 245B5 caused a decrease in the strength of the color signal.
A total TSNA assay was developed for monoclonal antibody 245J15.
Each analyte was obtained from the source identified in Example 3.
(§2) The affinity of monoclonal antibodies 245B5 and 245J15 to the N-nitroso group on compounds was evaluated using the immunoassay of Example 3 and the immunoassay of Example 4. Parent compounds lacking nitroso groups but having secondary amine groups were run in the immunoassays as previously described. Identical immunoassays were also conducted for compounds that were identical with the parent compounds except that for the addition of the nitroso group to the secondary amine in the compounds. NNN, NAT, and NAB are all examples of TSNAs. N-nitrosopyrollidine may be found in tobacco smoke, but is not a TSNA.

[2] = tested on: monoclonal antibody 245B5; test: Competitive ELISA for NNK using monoclonal antibody 245B5; type: binding, mice; conditions: for % Crossreactivity: NNK amount for 50% inhibition divided by test compound amount, x100
Experimental: as §1
TSNAs were purchased from Toronto Research Chemicals. […] The y-axis is B/Bo, which is the amount of color at 650 nm obtained in the presence of the compound divided by the amount of color obtained when no competing compound is present.
as §2

[3] = tested on: rabbit antisera raised against NNK oxime derivative conjugates; type: binding, New Zealand White Rabbits; conditions: one rabbit; for Crossreactivity at the 50% point: relative to NNK
Experimental: NNK oxime derivatives were prepared and conjugated to KLH and BSA as described in Example 1. The conjugates were diluted in complete Freund's adjuvant to prepare a 1:1 solution of conjugate:adjuvant. New Zealand White Rabbits (6 to 12 months of age) were immunized by injection with the suspension. Rabbits received two booster injections of the same conjugate/adjuvant at one month and two months after initial injection. At three months time, point test bleeds were tested against microtiter plates coated with oxime-derivatized NNK prepared and conjugated to ovalbumen using procedures described in Example 1.
All of these rabbits were used individually to produce competitive assays, as described in Example 3, with the exceptions that a 1:250,000 dilution of antisera in PBT was substituted for the supernatant and the microtiter plates were first coated with goat anti rabbit IgG (Catalog # 115-005-008, Jackson Immunoresearch, West Grove, Pa.) rather than goat anti mouse IgG. All other details were the same.

[4] = Antibody 245J15, NNK amount for 50% inhibition divided by test compound amount, x100
[5] = Antibody 245J15, read-out: 50% Inhibition at: M
[6] = Table 4, Antibody 245J15, parent compound vs N-nitroso derivative, read-out: 50% Inhibition at
[7] = 0.5 B/Bo, read-out: 50% Inhibition at: M
[8] = Table 3, parent compound vs N-nitroso derivative, read-out: 50% Inhibition at

| SMILES | 50% Inhibition at: ppm ([1]; Antibody 245J15) [ppm] | % Crossreactivity [1, 4] [%] | IC50 [1, 5] [µM] | IC50 [1, 6] [µM] | 50% Inhibition at: Ppm ([2]; 0.5 B/Bo) [Ppm] | IC50 [2, 7] [µM] | IC50 [2, 8] [µM] | other results |
| --- | --- | --- | --- | --- | --- | --- | --- | --- |
| O=C(O)C1CCCCN1 (racemic) [DL-Pipecolinic Acid] | 13630.2 | 0 | – | – | – | – | – | – |
| CN1CCCCC1CO (centres unmarked) [1-Methyl-2-piperidinemethanol] | 781.4 | 0.008 | 6000 | – | – | – | – | – |
| CN1CCCC1CCO (centres unmarked) [1-Methyl-2-pyrrolidineethanol] | 1264.4 | 0.005 | 9800 | – | – | – | – | – |
| CN1CCC(O)C1 (centres unmarked) [1-Methyl-3-pyrrolidinol] | 92.7 | 0.065 | 920 | – | – | – | – | – |
| O=C1CCCN1 [2-Pyrrolidinone] | 2594 | 0.002 | 30000 | – | – | – | – | – |
| Cl.OC1CCCNC1 (centres unmarked) [3-Hydroxypiperidine hydrochloride] | 17492.7 | 0 | – | – | – | – | – | – |
| OC1CCNC1 (centres unmarked) [3-Pyrrolidinol] | 5373.9 | 0.001 | 62000 | – | – | – | – | – |
| Cl.OC1CCNCC1 [4-Hydroxypiperidine hydrochloride] | 12282.5 | 0 | 89000 | – | – | – | – | – |
| OC[C@H]1CCCN1 [(R)-(−)-2-Pyrrolidine-methanol] | 1898.1 | 0.003 | 19000 | – | – | – | – | – |
| OC[C@@H]1CCCN1 [(S)-(+)-2-Pyrrolidine-methanol] | 996.7 | 0.006 | 9900 | – | – | – | – | – |
| c1cncc([C@@H]2CCCCN2)c1 [Anabasine] | 214.9 | 0.028 | 1300 | 1300 | >200 | > 1000 | > 1000 | % Crossreactivity [2]: <0.0002% |
| C1=CCC(c2cccnc2)NC1 (centres unmarked) [Anatabine] | 8.3 | 0.7 | 52 | 52 | 311.06 | 1900 | 1900 | % Crossreactivity [2]: 0.0004% |
| CCCCNCCCC [Dibutylamine] | – | – | – | > 50000 | – | – | > 50000 | – |
| CN1CCCC[C@H]1c1cccnc1 [Methyl Anabasine] | 30.2 | 0.2 | 180 | – | 271.90 | 1600 | – | % Crossreactivity [2]: 0.0005% |
| CCCCN(CCCC)N=O [N-Nitrosodibutylamine] | – | – | – | 10000 | – | – | 16000 | – |
| O=NN1CCCC1 [N-Nitrosopyrrolidine] | – | – | – | 5000 | – | – | 3000 | – |
| O=NN1CCCC[C@H]1c1cccnc1 [NAB, N-nitrosoanabasine] | 0.72 | 8.3 | 3.8 | 3.8 | 1.35 | 7.1 | 7.1 | Crossreactivity at the 50% point [3]: 1.6% |
| O=NN1CC=CC[C@H]1c1cccnc1 [NAT, N-nitrosoanatabine] | 0.13 | 46.3 | 0.68 | 0.68 | 0.35 | 1.8 | 1.8 | Crossreactivity at the 50% point [3]: 1.7% |
| CN(N=O)C(CCC=O)c1cccnc1 (centres unmarked) [NNA, 4-(methylnitrosamino)4-(3-pyridyl)butanal] | 0.56 | 10.8 | 2.7 | – | 18.00 | 87 | – | % Crossreactivity [2]: 0.0075% |
| CN(CCCC(O)c1cccnc1)N=O (centres unmarked) [NNAL, 4-(methylnitrosamino)-1-(3-pyridyl)-1-butanol] | 0.05 | 129.6 | 0.22 | – | 0.06923 | 0.33 | – | – |
| CN(CCCC(=O)c1cccnc1)N=O [NNK, 4-(methylnitrosamino)-1-(3-pyridyl)-1-butanone] | 0.06 | 100 | 0.29 | – | 0.00135 | 0.0065 | – | % Crossreactivity [2]: 100.00%; sensitivity at the 50% inhibition point ([3]; 1:250,000 dilution of antisera): 0.1 μg NNK per ml |
| CN1CCCC1c1cccnc1 (centres unmarked) [Nicotine] | 80.9 | 0.074 | 500 | – | 16.88 | 100 | – | % Crossreactivity ([1]; Antibody 245J15, NNK amount for 50% inhibition divided by test compound amount, x100, listed as Nicotine (Acros)): 0.034%; 50% Inhibition at: ppm ([1]; Antibody 245J15, listed as Nicotine (Acros)): 178.9 ppm; IC50 ([1]; Antibody 245J15, listed as Nicotine (Acros), read-out: 50% Inhibition at: M): 1100 µM; Crossreactivity at the 50% point [3]: 0.024% |
| O=C(O)C1CCCNC1 (centres unmarked) [Nipecotic Acid] | 24193.5 | – | – | – | – | – | – | – |
| c1cncc([C@@H]2CCCN2)c1 [Nornicotine] | 223.1 | 0.027 | 1500 | 1500 | >200 | > 1000 | > 1000 | % Crossreactivity [2]: <0.0002% |
| C1CCNCC1 [Piperidine] | 1300.3 | 0.005 | 15000 | – | – | – | – | – |
| c1ccncc1 [Pyridine] | – | – | – | – | – | – | – | 50% Inhibition at: ppm [1]: 946.9 ppm; % Crossreactivity [1]: 0.006%; IC50 ([1]; read-out: 50% Inhibition at: M): 12000 µM |
| C1CCNC1 [Pyrrolidine] | – | – | – | 20000 | – | – | 20000 | – |
